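Where inhibition never reached the appropriate level, the endpoint shown equals the highest concentration tested. Otherwise, values were interpolated linearly from a five-concentration, 48-hour dose response in 96-well plates. Abbreviation: GI50, concentration required for 50% inhibition of growth.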 Active and inactive are the calls of the source. Rule as the data show it: active = GI50 up to about 1.1 µM and inactive = higher.
Assays:
Assay in all cases: growth of human tumour cells (NCI), 48 h
BT-549 = system: BT-549
TK-10 = system: TK-10
OVCAR-4 = system: OVCAR-4
HCT-15 = system: HCT-15
RXF 393 = system: RXF 393
Hs-578T = system: Hs-578T
EKVX = system: EKVX
OVCAR-3 = system: OVCAR-3
786-0 = system: 786-0
HT-29 = system: HT-29
KM12 = system: KM12
NCI-H226 = system: NCI-H226
U-251 = system: U-251
SR = system: SR
SN12C = system: SN12C
MCF7 = system: MCF7
SW-620 = system: SW-620
LOX IMVI = system: LOX IMVI
NCI/ADR-RES = system: NCI/ADR-RES
RPMI-8226 = system: RPMI-8226
CCRF-CEM = system: CCRF-CEM
K562 = system: K562
A498 = system: A498
HCC 2998 = system: HCC 2998
SF-268 = system: SF-268
CAKI-1 = system: CAKI-1
SK-MEL-5 = system: SK-MEL-5
SK-MEL-28 = system: SK-MEL-28
IGROV-1 = system: IGROV-1
A549 = system: A549
SNB-75 = system: SNB-75
HL-60 = system: HL-60
PC-3 = system: PC-3
M14 = system: M14
SF-539 = system: SF-539
OVCAR-5 = system: OVCAR-5
SK-OV-3 = system: SK-OV-3
UO-31 = system: UO-31
UACC-62 = system: UACC-62
NCI-H460 = system: NCI-H460
ACHN = system: ACHN
OVCAR-8 = system: OVCAR-8
MOLT-4 = system: MOLT-4
NCI-H23 = system: NCI-H23
SNB-19 = system: SNB-19
MDA-MB-231 = system: MDA-MB-231
Malme-3M = system: Malme-3M
COLO 205 = system: COLO 205
SF-295 = system: SF-295
HCT-116 = system: HCT-116
MDA-N = system: MDA-N
NCI-H522 = system: NCI-H522
SK-MEL-2 = system: SK-MEL-2
DU-145 = system: DU-145
T47D = system: T47D
UACC-257 = system: UACC-257
HOP-62 = system: HOP-62
HOP-92 = system: HOP-92
MDA-MB-435 = system: MDA-MB-435

Measured: GI50

COc1ccc2c(c1)C/C(=C\c1cccc3ccccc13)C2=O
active: RXF 393 0.0902 µM
4.7 µM: HCT-15
inactive: BT-549 5.26 µM | TK-10 6.07 µM | OVCAR-4 67.9 µM | Hs-578T 84.9 µM | EKVX 18.5 µM | OVCAR-3 13.4 µM | 786-0 15.4 µM | HT-29 4.91 µM | KM12 5.41 µM | NCI-H226 10.5 µM | U-251 8.71 µM | SR 4.65 µM | SN12C 8.87 µM | MCF7 5.19 µM | SW-620 3.98 µM | LOX IMVI 5.07 µM | NCI/ADR-RES 4.66 µM | RPMI-8226 25.3 µM | CCRF-CEM 2.65 µM | K562 2.36 µM | A498 23.4 µM | HCC 2998 5.04 µM | SF-268 18.4 µM | CAKI-1 > 100 µM | SK-MEL-5 4.05 µM | SK-MEL-28 3.93 µM | IGROV-1 17.3 µM | A549 6.89 µM | SNB-75 12.4 µM | HL-60 4.95 µM | PC-3 16.2 µM | M14 5.97 µM | SF-539 7.33 µM | OVCAR-5 94 µM | SK-OV-3 16.8 µM | UO-31 44.5 µM | UACC-62 12.5 µM | NCI-H460 4.99 µM | ACHN 27.6 µM | OVCAR-8 21.7 µM | MOLT-4 4.89 µM | NCI-H23 2.84 µM | SNB-19 69.2 µM

COc1cc2c[n+](C)c3c4cc(OC)c(OC)cc4c(OCc4ccccc4)cc3c2cc1OC
inactive: TK-10 > 31.6 µM | OVCAR-4 2.02 µM | RXF 393 1.6 µM | EKVX > 100 µM | MDA-MB-231 2.32 µM | HT-29 2.28 µM | KM12 2.1 µM | Malme-3M 1.29 µM | SF-295 4.89 µM | LOX IMVI 1.31 µM | NCI/ADR-RES > 100 µM | RPMI-8226 5.28 µM | K562 1.83 µM | SK-MEL-2 1.63 µM | A498 27.3 µM | HCC 2998 2.1 µM | CAKI-1 > 39.2 µM | SK-MEL-28 1.24 µM | A549 4.72 µM | M14 1.77 µM | OVCAR-5 > 100 µM | HOP-62 1.86 µM | SK-OV-3 11.7 µM | UO-31 > 100 µM | NCI-H460 6.62 µM | ACHN > 69.3 µM | OVCAR-8 1.91 µM | NCI-H23 1.32 µM
> 100 µM: HCT-15
active: BT-549 0.32 µM | OVCAR-3 0.877 µM | 786-0 0.634 µM | NCI-H226 0.231 µM | U-251 0.0273 µM | COLO 205 0.263 µM | SR 0.14 µM | SN12C 0.265 µM | MCF7 0.578 µM | HCT-116 1.02 µM | SW-620 0.805 µM | MDA-N 0.982 µM | NCI-H522 0.155 µM | DU-145 1.08 µM | SF-268 0.0432 µM | T47D 0.0986 µM | SK-MEL-5 0.838 µM | UACC-257 0.706 µM | SNB-75 0.199 µM | PC-3 0.877 µM | SF-539 0.114 µM | HOP-92 0.966 µM | UACC-62 0.434 µM | MDA-MB-435 1.09 µM | MOLT-4 0.592 µM | SNB-19 0.0681 µM

CC12CCC(=O)N1c1cncnc1N2 (centres undefined)
active: HL-60 0.0374 µM
inactive: BT-549 > 10 µM | TK-10 > 10 µM | OVCAR-4 > 10 µM | Hs-578T > 10 µM | EKVX > 10 µM | OVCAR-3 > 10 µM | 786-0 > 10 µM | HT-29 > 10 µM | KM12 > 10 µM | Malme-3M > 10 µM | NCI-H226 > 10 µM | U-251 > 10 µM | SR > 10 µM | SN12C > 10 µM | MCF7 > 10 µM | SF-295 > 10 µM | HCT-116 > 10 µM | SW-620 > 10 µM | MDA-N > 10 µM | LOX IMVI > 10 µM | NCI/ADR-RES > 10 µM | CCRF-CEM > 10 µM | NCI-H522 > 10 µM | K562 > 10 µM | SK-MEL-2 > 10 µM | HCC 2998 > 10 µM | DU-145 > 10 µM | SF-268 > 10 µM | UACC-257 > 10 µM | IGROV-1 > 10 µM | A549 > 10 µM | SNB-75 > 10 µM | PC-3 > 10 µM | M14 > 10 µM | SF-539 > 10 µM | OVCAR-5 > 10 µM | HOP-92 > 10 µM | SK-OV-3 > 10 µM | UO-31 > 10 µM | UACC-62 > 10 µM | NCI-H460 > 10 µM | ACHN > 10 µM | OVCAR-8 > 10 µM | MDA-MB-435 > 10 µM | MOLT-4 > 10 µM | NCI-H23 > 10 µM | SNB-19 > 10 µM
> 10 µM: HCT-15

Reference: ChEMBL document CHEMBL1201862, “PubChem BioAssay data set” (2004)
